Data on four compounds can be found in article PMC11479992, “Branched oncolytic peptides target HSPGs, inhibit metastasis, and trigger the release of molecular determinants of immunogenic cell death in pancreatic cancer” (Frontiers in Molecular Biosciences, 2024).

The IC50 is the midpoint of a concentration-inhibition curve. A low value points to greater potency in that assay.

Test [1] concerns IFN-β secretion by PANC-1 cells. The experiment in a line: IFN-β release ELISA. The test is classed as cell-based, human. As to conditions: 300 to 2 μM, 24 h, n = 3. On the procedure:
PANC-1 cells were seeded 5 × 10^4 cells/well in a 96-well plate and incubated overnight at 37°C in a 5% CO2 atmosphere. Cells were then treated with BOP7, BOP9, daunorubicin hydrochloride (Sigma Aldrich) and irinotecan hydrochloride (Sigma Aldrich) at different concentrations (from 300 to 2 μM) and left for 24 h at 37°C. At the same time, a DuoSet ELISA plate (R&D Systems Inc., Minneapolis, MN, United States) for the detection of IFN-β was prepared following the manufacturer’s instructions. The plate was sensitized with 100 μL/well of capture antibody for 24 h. PANC-1 supernatants were collected and centrifuged for 5 min at 1,200 rpm, added to the DuoSet plate at 100 μL/well and incubated for 2 h at room temperature. The detection antibody conjugated with streptavidin-peroxidase was then added. After adding the substrate solution, the plate was read at 450 nm using a microplate spectrophotometer (Multiskan, Thermo Scientific). Data was analysed using GraphPad Prism version 9.5.0 software.
(In general: ELISA stands for enzyme-linked immunosorbent assay.)

In test [2] the test system is ATP release by PANC-1 cells. The experiment in a line: Extracellular ATP bioluminescence assay. The test is classed as cell-based, human. The note with it: 50 μM. As for the experimental part: PANC-1 cells were seeded (10 × 10^3 cells/well) in an opaque-walled 96-well plate and incubated overnight at 37°C in a 5% CO2 atmosphere. The following day, each well was treated with 150 μL BOP7, BOP9, daunorubicin hydrochloride (Sigma Aldrich) or irinotecan hydrochloride (cod. PHR2717, Sigma Aldrich) at different concentrations (from 50 to 2 μM). At the same time, each well was incubated with 50 μL RealTime-Glo Extracellular ATP Reagent Substrate (Promega). The plate was incubated at 37° and bioluminescence was measured at 560 nm at different time intervals with a VICTOR NIVO 5S luminometer (Perkin Elmer, Waltham, MA, United States). Data was analysed using GraphPad Prism version 9.5.0 software.

In test [3] the test system is HMGB1 release by PANC-1 cells. The experiment in a line: HMGB1 release ELISA. The test is classed as cell-based, human. The note with it: 300 to 2 μM, 24 h, ELISA of supernatants, n = 3. On the procedure:
PANC-1 cells were seeded 5 × 10^4 cells/well in a standard 96-well plate and incubated overnight at 37°C in a 5% CO2 atmosphere. Then they were treated with BOP7, BOP9, daunorubicin hydrochloride (Sigma Aldrich) and irinotecan hydrochloride (Sigma Aldrich) at different concentrations (from 300 to 2 μM in 200 μL) and left for 24 h at 37°C. The following day, release of HMGB1 in the culture medium was assessed with an HMGB1 ELISA kit (IBL International, Hamburg, Germany) in the PANC-1 supernatants, according to the manufacturer’s instructions. Optical density was measured at 450 nm with a microplate spectrophotometer (Multiskan, Thermo Scientific). Data was analysed using GraphPad Prism version 9.5.0 software.

The test system of test [4] is PANC-1 cells. The test is classed as cell-based, human. The note with it: 24 h. As for the experimental part: (§1) PANC-1, PANC-1-luc2, Mia PaCa-2 or CHO-K1 cells were seeded 5 × 10^4 cells/well in a standard 96-well plate and incubated overnight at 37°C, 5% CO2 atmosphere. Each well was treated with 200 μL BOP7 or BOP9 at different concentrations (from 100 to 0.08 μM) and incubated for 24 h. PANC-1 and Mia PacCa-2 were also tested with linear peptides L7 and L9 at concentrations ranging from 781 to 0.5 μM under the same conditions. Growth inhibition was assessed with a MMT assay (3-(4,5-dimethylthiazol-2-yl)-2,5-diphenyltetrazolium bromide) (Sigma Aldrich). Optical density was measured at 595 and 650 nm with a microplate spectrophotometer (Multiskan, Thermo Scientific). Experiments were repeated twice in quintuplicate. Cell viability was measured by comparing values of treated and untreated cells. IC50 values were calculated by non-linear regression analysis using GraphPad Prism version 9.5.0 software.

For test [5], the system named is Mia PaCa-2 cells. The test is classed as cell-based, human. As to conditions: 24 h. On the procedure: as §1
The subject of test [6] is CHO-K1 cells. The test is classed as cell-based, chinese hamster. As to conditions: 24 h. As for the experimental part:
as §1, with “Each well was treated with 200 μL BOP7 or BOP9 at different concentrations (from 100 to 0.08 μM) and incubated for 24 h.” left out

Where a name gives a salt, the structure may show the parent alone. Bridges are numbered along the chain shown (N, C = ends). Roman numbers before positions name the chains, in order. Where no end group is shown, it is not given here.

On to `COc1cccc2c1C(=O)c1c(O)c3c(c(O)c1C2=O)C[C@@](O)(C(C)=O)C[C@@H]3O[C@H]1C[C@H](N)[C@H](O)[C@H](C)O1` [daunorubicin, daunorubicin hydrochloride], for which the IFN-β release result in test [1] is given as “did not result in a statistically significant release”. Further, in test [2], the “time after which ATP release returned to baseline” value was determined as 6 h and the “time of peak of ATP release” value stood at 3 h. Further, the ATP release result in test [2] (bioluminescence over time) was “most effective agent”. Also, the HMGB1 release entry in test [3] was “most effective inducer even at the lowest concentrations”.

In the case of `CCc1c2c(nc3ccc(OC(=O)N4CCC(N5CCCCC5)CC4)cc13)-c1cc3c(c(=O)n1C2)COC(=O)[C@]3(O)CC` [irinotecan, irinotecan hydrochloride], the IFN-β release result in test [1] was “did not result in a statistically significant release”.

Take “I: LLKKKFKKLQKK-NH2 / II: LLKKKFKKLQK / III: LLKKKFKKLQ / IV: LLKKKFKKLQ (amide I:11-IV:C, I:12-II:C, II:11-III:C) [BOP7]”: the IC50 in test [4] was 1.67 µM; in test [5] it was 27.3 µM; in test [6], 5000 µM.

As for “I: KKKLKFKKLQKK-NH2 / II: KKKLKFKKLQK / III: KKKLKFKKLQ / IV: KKKLKFKKLQ (amide I:11-IV:C, I:12-II:C, II:11-III:C) [BOP9]”, the IC50 turned out to be 8.3 µM in test [4], 17.8 µM in test [5] and 16000 µM in test [6].
